Measured values taken from patent US20040204577A1, “Novel peptide-forming enzyme gene” (Ajinomoto Co., Inc., priority 2003, published 2004).
Marks after values point to notes of the source that are not given here. Where a SMILES comes first, the peptide text is derived from it. Where no end group is shown, it is not given here. [ ]: non-standard residue; d: D form.

Legend:
[1] = tested on: peptide-forming enzyme (Mono S fraction enzyme); experiment: Enzyme substrate specificity (1)-(10), (13), (14): peptide production; assay type: biochemical, Empedobacter brevis; set-up: key to Produced peptide (oligopeptide): +: those for which production was confirmed but which were unable to be quantified due to the absence of a standard; a trace amount; key to Formed peptide: +: those peptides for which production was confirmed but which were unable to be quantified due to the absence of a standard; a trace amount; settings: pH 9.0, 25° C., 3 hours
Protocol: Ester specificity was examined in the case of using L-amino acid ester for the carboxy component. 2 μl of the same enzyme fraction as used in Example 5 was added to 100 μl of 100 mM borate buffer (pH 9.0) containing the carboxy components indicated in Table 4 at 100 mM, 200 mM L-glutamine and 10 mM EDTA, and allowed to react at 25° C. for 2 hours. HCl represents hydrochloride in Table 4.
Peptide production was examined in the case of using L-alanine methyl ester for the carboxy component and using various L-amino acids for the amine component.
Peptide production was examined in the case of using various types of L-amino acid methyl esters for the carboxy component and using L-glutamine for the amine component. 2 μl of the same enzyme fraction as used in Example 5 was added to 100 μl of 100 mM borate buffer (pH 9.0) containing the L-amino acid methyl ester hydrochloride salts (AA-OMe.HCl) shown in Table 6 at 100 mM, 150 mM L-glutamine and 10 mM EDTA, and allowed to react at 25° C. for 3 hours. […] Furthermore, Tween-80 was added to the reaction system to a final concentration of 0.1% in the case of using L-Trp-OMe and L-Tyr-OMe.
Peptide production was examined in the case of using various L-amino acid methyl esters for the carboxy component and various L-amino acids for the amine component. 2 μl of the same enzyme fraction as used in Example 5 was added to 100 μl of 100 mM borate buffer (pH 9.0) containing the L-amino acid methyl ester hydrochloride salts (AA-OMe.HCl) shown in Table 7 at 100 mM, the L-amino acids shown in Table 7 at 150 mM and 10 mM EDTA, and allowed to react at 25° C. for 3 hours. The “tr” indicates a trace amount. Furthermore, Tween-80 was added to the reaction system to a final concentration of 0.1% in the case of using L-Trp-OMe.
Peptide production was examined in the case of using the L or D forms of various amino acid methyl esters for the carboxy component, and the L or D forms of various amino acids for the amine component. 2 μl of the same enzyme fraction as used in Example 5 was added to 100 μl of 100 mM borate buffer (pH 9.0) containing the various amino acid methyl ester hydrochloride salts (AA-OMe HCl) shown in Table 8 at 100 mM, the various amino acids shown in Table 8 at 150 mM and 10 mM EDTA, and allowed to react at 25° C. for 3 hours. The “tr” indicates a trace amount.
Peptide production was examined using various L-amino acid amides for the carboxy component, and various L-amino acids for the amine component. 2 μl of the same enzyme fraction as that used in Example 5 was added to 100 μl of 100 mM borate buffer (pH 9.0) containing the L-amino acid amide hydrochloride salt (M-NH2.HCl) shown in Table 9 at 100 mM, the L-amino acids shown in Table 9 at 150 mM and 10 mM EDTA, and allowed to react at 25° C. for 3 hours.
Peptide production was examined in the case of using various L-alanine methyl esters for the carboxy component and C-protected L-amino acids for the amine component. 2 μl of the same enzyme fraction as used in Example 5 was added to 100 μl of 100 mM borate buffer (pH 9.0) containing the L-alanine methyl ester hydrochloride hydrochloride salt (Ala-OMe.HCl) shown in Table 10 at 100 mM, the L-amino acid amide hydrochloride salts shown in Table 10 at 150 mM and 10 mM EDTA, and allowed to react at 25° C. for 3 hours.
Peptide production was examined in the case of using various amino acid methyl esters for the carboxy component and methylamine for the amine component. 2 μl of the same enzyme fraction as used in Example 5 was added to 100 μl of 100 mM borate buffer (pH 9.0) containing the amino acid methyl ester hydrochloride salt (M-OMe.HCl) shown in Table 11 at 100 mM, the methylamine shown in Table 11 at 150 mM and 10 mM EDTA, and allowed to react at 25° C. for 3 hours.
Peptide production was examined in the case of using […] for the carboxy component or β-amino acid for the amine component.

[2] = tested on: enzyme derived from Sphingobacterium sp. strain FERM BP-8124 (SP-Sepharose HP fraction enzyme); experiment: Enzyme substrate specificity (11), (12): peptide production; assay type: biochemical; set-up: key to Produced peptide (Table 15-1) / Produced peptide (Table 15-3) / Produced peptide (Table 15-4): +: those peptides for which production was confirmed but which were unable to be quantified due to the absence of a standard; a trace amount; settings: carboxy component 100 mM, 0.33 units enzyme, pH 9.0, 25° C., 1.5 hours; for Produced peptide (Table 15-4): amides and methylamine
From the text: Substrate specificity was examined for enzyme derived from Sphingobacterium sp. strain FERM BP-8124 (Depositary institution: the independent administrative corporation, National Institute of Advanced Industrial Science and Technology, International Patent Organism Depositary, Address of depositary institution: Chuo Dai-6, 1-1 Higashi 1-Chome, Tsukuba-shi, Ibaraki-ken, Japan, International deposit date: […] The amounts of various peptides formed in this reaction are shown in Table 15. The “+” mark indicates those peptides for which production was confirmed but which were unable to be quantified due to the absence of a standard, while “tr” indicates a trace amount. Furthermore, Tween-80 was added to the reaction system to a final concentration of 0.1% in the case of using L-Tyr-OMe. In addition, hydrochloride salts were used for all carboxy components. Substrate specificity with respect to oligopeptide production was examined for enzyme derived from Sphingobacterium sp. strain FERM BP-8124 (Depositary institution: the independent administrative corporation, National Institute of Advanced Industrial Science and Technology, International Patent Organism Depositary, Address of depositary institution: Chuo Dai-6, 1-1 Higashi 1-Chome, Tsukuba-shi, Ibaraki-ken, Japan, International deposit date: […] The amounts of each oligopeptide formed in this reaction are shown in Table 16. Furthermore, hydrochloride salts were used for all the carboxy components.

[3] = L or D amino acid methyl ester hydrochloride 100 mM, L or D amino acid 150 mM
[4] = L-amino acid methyl ester hydrochloride 100 mM, L-amino acid 150 mM
[5] = L-amino acid methyl ester hydrochloride 100 mM, 150 mM L-glutamine
[6] = L-alanine methyl ester hydrochloride 100 mM, L-amino acid amide hydrochloride 150 mM
[7] = 100 mM L-alanine methyl ester hydrochloride, L-amino acid 150 mM
[8] = L-amino acid ester 100 mM, peptide (amine component) 150 mM
[9] = β-amino acid ester or β-amino acid, carboxy component 100 mM, amine component 150 mM

C[C@@H](N)C(=O)N[C@H](CO)C(=O)O [D-Ala-D-Ser] (H-[dA]-[dS]-OH)
Formed peptide [1, 3]: 0.2 mM | Produced peptide (Table 15-1) ([2]; amine component 150 mM): 5.5 mM

C[C@@H](N)C(=O)N[C@@H](CO)C(=O)O [D-Ala-L-Ser] (H-[dA]-Ser-OH)
Formed peptide [1, 3]: 20.3 mM | Produced peptide (Table 15-1) ([2]; amine component 150 mM): 24.1 mM

NCC(=O)N[C@@H](CCCN=C(N)N)C(=O)O [Gly-L-Arg] (H-Gly-Arg-OH)
Formed peptide [1, 4]: 25.5 mM | Produced peptide (Table 15-3) ([2]; amine component 150 mM): 17.9 mM

NCC(=O)N[C@@H](CCC(N)=O)C(=O)O [Gly-L-Gln] (H-Gly-Gln-OH)
Formed peptide [1, 5]: 54.7 mM | Produced peptide (Table 15-2) ([2]; L-Gln 150 mM): 61.1 mM

NCCCC[C@H](NC(=O)CN)C(=O)O [Gly-L-Lys] (H-Gly-Lys-OH)
Formed peptide [1, 4]: 9.8 mM | Produced peptide (Table 15-3) ([2]; amine component 150 mM): 48.2 mM

NCC(=O)N[C@@H](Cc1ccccc1)C(=O)O [Gly-L-Phe] (H-Gly-Phe-OH)
Formed peptide [1, 4]: 44.0 mM | Produced peptide (oligopeptide) ([1]; amount of enzyme 0.1 unit): 17.3 mM | Produced peptide (Table 15-3) ([2]; amine component 150 mM): 20.0 mM

NCC(=O)N[C@@H](CO)C(=O)O [Gly-L-Ser] (H-Gly-Ser-OH)
Formed peptide [1, 4]: 44.2 mM | Produced peptide (Table 15-3) ([2]; amine component 150 mM): 53.8 mM

CNC(=O)CN [Gly-methylamine]
Formed peptide ([1]; amino acid methyl ester hydrochloride 100 mM, methylamine 150 mM): 1.1 mM | Produced peptide (Table 15-4) ([2]; amine component 150 mM): 1.0 mM

C[C@H](N)C(=O)N[C@H](CO)C(=O)O [L-Ala-D-Ser] (H-Ala-[dS]-OH)
Formed peptide [1, 3]: 5.4 mM | Produced peptide (Table 15-1) ([2]; amine component 150 mM): 3.3 mM

C[C@H](N)C(=O)NCC(N)=O [L-Ala-Gly-NH2] (H-Ala-Gly-NH2)
Formed peptide [1, 6]: 7.4 mM | Produced peptide (Table 15-4) ([2]; amine component 150 mM): 15.1 mM

C[C@H](N)C(=O)NCC(=O)O [L-Ala-Gly] (H-Ala-Gly-OH)
Formed peptide [1, 7]: 13.7 mM | Produced peptide (Table 15-1) ([2]; amine component 150 mM): 11.1 mM

C[C@H](N)C(=O)N[C@@H](C)C(N)=O [L-Ala-L-Ala-NH2] (H-Ala-Ala-NH2)
Formed peptide [1, 6]: 8.3 mM | Produced peptide (Table 15-4) ([2]; amine component 150 mM): 9.2 mM

C[C@H](N)C(=O)N[C@@H](C)C(=O)O [L-Ala-L-Ala] (H-Ala-Ala-OH)
Formed peptide [1, 7]: 25.4 mM | Produced peptide [1, 8]: 28.7 mM | Produced peptide (Table 15-1) ([2]; amine component 150 mM): 13.1 mM | Produced peptide (Table 16, oligopeptide) ([2]; amine component 150 mM): 25.6 mM

C[C@H](N)C(=O)N[C@@H](CC(N)=O)C(=O)O [L-Ala-L-Asn] (H-Ala-Asn-OH)
Formed peptide [1, 7]: 65.5 mM | Produced peptide (Table 15-1) ([2]; amine component 150 mM): 52.3 mM

C[C@H](N)C(=O)N[C@@H](CC(=O)O)C(=O)O [L-Ala-L-Asp] (H-Ala-Asp-OH)
Formed peptide [1, 7]: 2.1 mM | Produced peptide (Table 15-1) ([2]; amine component 150 mM): 2.3 mM

C[C@H](N)C(=O)N[C@@H](CS)C(=O)O [L-Ala-L-CySH] (H-Ala-Cys-OH)
Formed peptide [1, 7]: + | Produced peptide (Table 15-1) ([2]; amine component 150 mM): +

C[C@H](N)C(=O)N[C@@H](CCC(=O)O)C(=O)O [L-Ala-L-Glu] (H-Ala-Glu-OH)
Formed peptide [1, 7]: 42.9 mM | Produced peptide (Table 15-1) ([2]; amine component 150 mM): 39.1 mM

CC[C@H](C)[C@H](NC(=O)[C@H](C)N)C(=O)O [L-Ala-L-Ile] (H-Ala-Ile-OH)
Formed peptide [1, 7]: 33.9 mM | Produced peptide (Table 15-1) ([2]; amine component 150 mM): 24.7 mM

C[C@H](N)C(=O)N[C@@H](CCCCN)C(=O)O [L-Ala-L-Lys] (H-Ala-Lys-OH)
Formed peptide [1, 7]: 71.8 mM | Produced peptide (Table 15-1) ([2]; amine component 150 mM): 71.2 mM

C[C@H](N)C(=O)N[C@@H](Cc1ccccc1)C(N)=O [L-Ala-L-Phe-NH2]
Formed peptide [1, 6]: 12.2 mM | Produced peptide (Table 15-4) ([2]; amine component 150 mM): 27.1 mM

CSCC[C@H](NC(=O)[C@@H](N)CCSC)C(=O)O [L-Met-L-Met] (H-Met-Met-OH)
Produced peptide (Table 15-3) ([2]; amine component 150 mM): 28.4 mM

CSCC[C@H](N)C(=O)N[C@@H](CO)C(=O)O [L-Met-L-Ser] (H-Met-Ser-OH)
Produced peptide (Table 15-3) ([2]; amine component 150 mM): 25.3 mM

C[C@@H](O)[C@H](N)C(=O)NC(CC(=O)O)c1ccccc1 (stereo partly drawn) [Thr-β-Phe]
Formed peptide [1, 9]: 1.4 mM

NC(=O)CC[C@H](NC(=O)[C@@H](N)CCC(=O)O)C(=O)O [α-L-Glu-L-Gln] (H-Glu-Gln-OH)
Formed peptide [1, 5]: +

NCCC(=O)N[C@@H](CCC(N)=O)C(=O)O [β-Ala-L-Gln]
Formed peptide [1, 9]: 0.6 mM

NCCC(=O)NC(CO)C(=O)O [β-Ala-L-Ser]
Formed peptide [1, 9]: 3.2 mM

C[C@H](NC(=O)CCN)C(=O)O [β-Ala-L-α-Ala]
Formed peptide [1, 9]: tr

NCCC(=O)NCCC(=O)O [β-Ala-β-Ala]
Formed peptide [1, 9]: 0.2 mM

NC(=O)CC[C@H](NC(=O)C[C@H](N)C(=O)O)C(=O)O [β-L-Asp-L-Gln]
Formed peptide [1, 5]: tr

NC(=O)CC[C@H](NC(=O)CC[C@H](N)C(=O)O)C(=O)O [γ-L-Glu-L-Gln]
Formed peptide [1, 5]: +

Gly-Gly-L-Gln
Produced peptide [1, 8]: 7.2 mM

Gly-Gly-L-Tyr-L-Ala
Produced peptide [1, 8]: 44.2 mM

Gly-Phe-Met
Produced peptide (oligopeptide) ([1]; amount of enzyme 1.0 unit): 13.3 mM

L-Ala-Gly-Gly-L-Phe-L-Met
Produced peptide (oligopeptide) ([1]; amount of enzyme 0.2 unit): +

L-Ala-Gly-L-Phe
Produced peptide (oligopeptide) ([1]; amount of enzyme 0.1 unit): +

L-Ala-L-Ala-L-Ala-L-Ala-L-Ala-L-Ala
Produced peptide ([1]; carboxy component 10 mM, amine component 15 mM (low solubility)): 1.4* mM

L-Ala-L-Phe-L-Met
Produced peptide (oligopeptide) ([1]; amount of enzyme 0.2 unit): +

L-Tyr-Gly-Gly-L-Phe-L-Met
Produced peptide (oligopeptide) ([1]; amount of enzyme 1.0 unit): 2.7 mM

[dA]-Gly-Phe
Produced peptide (oligopeptide) ([1]; amount of enzyme 0.1 unit): Tr
